Target: T1, human Cav2.2 (Homo sapiens, UniProt Q00975)
T1 construct: IMR32 cells endogenously expressing human Cav2.2; endogenous in cells; host or cells: IMR32 cells (human neuroblastoma)
Assay: Assessment of calcium channel activity using FLIPR (Ca2+ influx in IMR32 cells)
Assay type: cell-based
Conditions: IMR32 cells endogenously expressing human Cav2.2, Calcium 4 dye, 60 minute pre-incubation, 2 μM nifedipine, depolarized with 80 mM KCl, 5 mM CaCl2
Experimental: (i) In Vitro Methods—Assessment of Calcium Channel Activity Using FLIPR:
IMR32 cells endogenously expressing human Cav2.2 were assayed for Ca^2+ influx using a no-wash calcium indicator dye (Calcium 4 dye: Molecular Probes) and FLIPR technology (Lubin, M. L.; Reitz, T. L.; Todd, M. J.; Flores, C. M.; Qin, N.; Xin, H. Assay and Drug Development Technologies 2006, 4(6), 689-694.). The IMR32 cells were maintained in MEM media containing 10% (v/v) FBS, 1% (v/v) antibiotic/antimitotic, 1% (v/v) sodium pyruvate and 1% (v/v) MEM NEAA. Following dissociation in 0.05% (v/v) trypsin/EDTA, cells were seeded into black 1×96-well plates (Corning Cellbind) at a density of 1−1.2×10^5 cells/well and incubated in the maintenance media above for 48 hours at 37° C. Immediately prior to performing the assay the media was removed and cells were loaded for 1.5 hours with 1×Calcium 4 dye prepared in HBSS (137 mM NaCl, 5.4 mM KCl, 0.25 mM Na2HPO4, 0.44 mM KH2PO4, 1.3 mM CaCl2, 1 mM MgSO4, 4.2 mM NaHCO3) containing HEPES pH 7.4 at room temperature. After dye loading and a subsequent 60 minute pre-incubation with compounds (full log dilutions from 10 μM to 0.1 nM) in the presence of 1.3 mM CaCl2 and 2 μM nifedipine to block endogenous L-type channels, the external Ca^2+ concentration was increased to 5 mM CaCl2 and the cells concomitantly depolarized with 80 mM KCl to assay channel activity. To determine the IC50 values, the percent inhibition of the compound at each concentration was determined relative to the activity in the absence of inhibitor, and data was fitted using non-linear regression sigmoidal dose response curve analysis with GraphPad Prism®.

T1 sequence (Q00975 whole entry): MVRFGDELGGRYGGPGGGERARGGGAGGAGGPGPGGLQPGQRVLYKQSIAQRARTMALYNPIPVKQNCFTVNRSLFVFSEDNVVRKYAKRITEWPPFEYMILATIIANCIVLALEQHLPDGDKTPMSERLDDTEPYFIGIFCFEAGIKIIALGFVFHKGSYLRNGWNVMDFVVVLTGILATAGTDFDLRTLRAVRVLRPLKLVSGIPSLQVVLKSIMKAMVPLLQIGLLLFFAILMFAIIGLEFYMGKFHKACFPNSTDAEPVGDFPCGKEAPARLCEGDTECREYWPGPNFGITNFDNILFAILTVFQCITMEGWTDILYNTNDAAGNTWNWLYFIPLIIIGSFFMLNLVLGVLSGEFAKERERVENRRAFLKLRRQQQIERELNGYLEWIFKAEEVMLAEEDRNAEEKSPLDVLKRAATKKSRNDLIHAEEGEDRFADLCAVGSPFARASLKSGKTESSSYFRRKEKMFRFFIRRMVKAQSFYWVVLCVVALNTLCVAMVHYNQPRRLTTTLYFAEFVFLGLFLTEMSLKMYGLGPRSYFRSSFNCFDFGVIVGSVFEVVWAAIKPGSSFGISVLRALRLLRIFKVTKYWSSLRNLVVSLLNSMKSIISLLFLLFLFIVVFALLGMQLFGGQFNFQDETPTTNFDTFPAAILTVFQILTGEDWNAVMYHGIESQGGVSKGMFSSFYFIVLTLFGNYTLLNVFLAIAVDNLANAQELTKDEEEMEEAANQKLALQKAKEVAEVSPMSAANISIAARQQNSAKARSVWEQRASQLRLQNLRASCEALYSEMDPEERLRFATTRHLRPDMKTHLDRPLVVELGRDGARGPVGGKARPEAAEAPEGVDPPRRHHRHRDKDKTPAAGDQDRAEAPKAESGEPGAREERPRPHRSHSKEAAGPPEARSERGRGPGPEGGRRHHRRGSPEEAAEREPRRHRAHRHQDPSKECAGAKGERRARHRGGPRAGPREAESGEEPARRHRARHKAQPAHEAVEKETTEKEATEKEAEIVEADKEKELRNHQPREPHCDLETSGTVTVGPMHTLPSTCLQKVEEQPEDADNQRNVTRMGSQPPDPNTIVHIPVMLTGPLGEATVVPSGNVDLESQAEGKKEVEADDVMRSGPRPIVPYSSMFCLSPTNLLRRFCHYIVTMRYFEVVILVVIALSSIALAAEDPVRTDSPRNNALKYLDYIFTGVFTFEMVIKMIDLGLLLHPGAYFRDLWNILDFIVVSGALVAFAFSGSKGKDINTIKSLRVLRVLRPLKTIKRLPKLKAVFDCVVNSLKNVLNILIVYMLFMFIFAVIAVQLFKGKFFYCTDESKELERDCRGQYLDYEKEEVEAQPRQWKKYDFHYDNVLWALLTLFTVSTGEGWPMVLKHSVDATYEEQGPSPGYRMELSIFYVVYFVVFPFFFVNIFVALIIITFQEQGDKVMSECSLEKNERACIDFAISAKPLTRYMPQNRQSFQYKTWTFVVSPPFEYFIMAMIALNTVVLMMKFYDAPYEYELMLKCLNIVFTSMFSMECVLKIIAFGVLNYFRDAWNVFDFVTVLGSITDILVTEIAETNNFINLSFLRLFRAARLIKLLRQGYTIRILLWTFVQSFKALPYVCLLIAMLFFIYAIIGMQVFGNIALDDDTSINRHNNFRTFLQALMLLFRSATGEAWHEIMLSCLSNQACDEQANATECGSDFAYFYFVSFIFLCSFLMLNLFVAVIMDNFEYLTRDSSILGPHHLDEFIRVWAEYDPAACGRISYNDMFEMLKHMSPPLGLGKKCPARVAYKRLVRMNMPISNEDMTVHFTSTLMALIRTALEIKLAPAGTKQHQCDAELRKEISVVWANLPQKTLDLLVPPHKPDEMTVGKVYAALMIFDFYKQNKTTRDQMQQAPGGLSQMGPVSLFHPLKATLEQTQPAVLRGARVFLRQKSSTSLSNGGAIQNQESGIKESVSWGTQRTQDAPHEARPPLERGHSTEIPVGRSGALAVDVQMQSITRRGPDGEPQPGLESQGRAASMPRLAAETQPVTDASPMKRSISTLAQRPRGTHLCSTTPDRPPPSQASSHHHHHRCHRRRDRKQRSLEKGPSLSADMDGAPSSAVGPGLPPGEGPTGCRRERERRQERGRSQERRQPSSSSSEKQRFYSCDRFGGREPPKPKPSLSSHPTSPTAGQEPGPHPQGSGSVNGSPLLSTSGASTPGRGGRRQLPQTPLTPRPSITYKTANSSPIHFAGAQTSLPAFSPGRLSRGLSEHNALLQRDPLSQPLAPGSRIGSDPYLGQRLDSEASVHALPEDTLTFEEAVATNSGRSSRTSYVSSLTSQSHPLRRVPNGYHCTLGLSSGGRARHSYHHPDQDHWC
T1 sequence (P54289 25-956 partner limits assumed): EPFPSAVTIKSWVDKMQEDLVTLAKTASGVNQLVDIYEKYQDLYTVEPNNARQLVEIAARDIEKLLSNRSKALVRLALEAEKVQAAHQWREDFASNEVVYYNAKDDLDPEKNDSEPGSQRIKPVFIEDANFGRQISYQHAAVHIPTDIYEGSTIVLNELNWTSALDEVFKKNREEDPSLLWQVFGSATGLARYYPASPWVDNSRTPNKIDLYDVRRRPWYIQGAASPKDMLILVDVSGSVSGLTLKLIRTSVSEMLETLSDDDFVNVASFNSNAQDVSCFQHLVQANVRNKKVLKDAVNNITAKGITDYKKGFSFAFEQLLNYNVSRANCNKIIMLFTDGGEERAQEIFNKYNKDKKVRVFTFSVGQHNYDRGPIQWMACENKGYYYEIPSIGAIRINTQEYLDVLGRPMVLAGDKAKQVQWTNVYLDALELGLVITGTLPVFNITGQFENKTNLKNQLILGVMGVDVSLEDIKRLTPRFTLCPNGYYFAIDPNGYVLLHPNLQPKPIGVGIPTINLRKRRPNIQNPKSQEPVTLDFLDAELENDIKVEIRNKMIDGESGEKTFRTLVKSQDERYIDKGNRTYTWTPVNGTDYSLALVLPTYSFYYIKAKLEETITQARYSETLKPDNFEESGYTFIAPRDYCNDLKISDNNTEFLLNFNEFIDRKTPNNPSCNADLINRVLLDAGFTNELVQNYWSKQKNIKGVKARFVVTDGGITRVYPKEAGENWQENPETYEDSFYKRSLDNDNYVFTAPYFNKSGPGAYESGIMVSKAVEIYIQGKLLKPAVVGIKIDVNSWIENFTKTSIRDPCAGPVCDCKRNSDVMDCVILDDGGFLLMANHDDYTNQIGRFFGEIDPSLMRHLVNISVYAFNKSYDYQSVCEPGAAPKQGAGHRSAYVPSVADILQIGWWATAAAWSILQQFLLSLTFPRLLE
T1 sequence (P54289 957-1103 partner limits assumed): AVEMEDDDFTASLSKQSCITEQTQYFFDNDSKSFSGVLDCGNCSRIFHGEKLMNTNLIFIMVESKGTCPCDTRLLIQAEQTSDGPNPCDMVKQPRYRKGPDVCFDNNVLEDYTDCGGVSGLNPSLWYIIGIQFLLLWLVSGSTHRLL
T1 sequence (P54284 whole entry partner): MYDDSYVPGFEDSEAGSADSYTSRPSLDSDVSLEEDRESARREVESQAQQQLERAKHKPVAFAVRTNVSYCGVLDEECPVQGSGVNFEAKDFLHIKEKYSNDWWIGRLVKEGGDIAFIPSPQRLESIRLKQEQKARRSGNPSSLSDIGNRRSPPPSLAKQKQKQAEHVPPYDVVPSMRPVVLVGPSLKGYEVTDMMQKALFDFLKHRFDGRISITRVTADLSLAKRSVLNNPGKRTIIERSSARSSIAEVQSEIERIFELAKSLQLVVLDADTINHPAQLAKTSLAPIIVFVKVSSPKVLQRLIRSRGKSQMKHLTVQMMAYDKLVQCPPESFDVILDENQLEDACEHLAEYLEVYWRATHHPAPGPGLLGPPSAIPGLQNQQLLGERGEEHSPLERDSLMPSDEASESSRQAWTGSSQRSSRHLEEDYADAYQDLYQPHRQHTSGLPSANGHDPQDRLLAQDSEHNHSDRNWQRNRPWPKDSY

IC50 [µM] | SMILES
0.18 | C[C@]1(NCc2cccc(F)c2)CC[C@@H]2CN(c3cccc(C(F)(F)F)n3)C[C@@H]21 [Example 25, (3aR,4S,6aS)—N-(3-fluorobenzyl)-4-methyl-2-[6-(trifluoromethyl)pyridin-2-yl]octahydrocyclopenta[c]pyrrol-4-amine]
11.6 | CC(C)(C)OC(=O)N1C[C@H]2CC[C@H](C(=O)Nc3cccc(F)c3)[C@H]2C1 [Example 54]
4.33 | Cc1cn([C@H]2CC[C@@H]3CN(c4cccc(C(F)(F)F)n4)C[C@@H]32)cn1 [Example 67, (3aR,4S,6aS)-4-(4-methyl-1H-imidazol-1-yl)-2-[6-(trifluoromethyl)pyridin-2-yl]octahydrocyclopenta[c]pyrrole]

Further lines, the molecule ahead of its results:

SMILES | IC50 [µM]
C[C@@]1(NCc2ccccc2)CC[C@@H]2CN(c3cccc(C(F)(F)F)n3)C[C@@H]21 [Example 21, (3aR,4R,6aS)—N-benzyl-4-methyl-2-[6-(trifluoromethyl)pyridin-2-yl]octahydrocyclopenta[c]pyrrol-4-amine] | 1.03
FC(F)(F)c1cccc(N2C[C@H]3CC[C@H](n4cnc5ccccc54)[C@H]3C2)n1 [Example 60, 1-{(3aR,4S,6aS)-2-[6-(trifluoromethyl)pyridin-2-yl]octahydrocyclopenta[c]pyrrol-4-yl}-1H-benzimidazole] | 1.96
FC(F)(F)c1cccc(N2C[C@H]3CC[C@H](n4ncc5ccccc54)[C@H]3C2)n1 [Example 65, 1-{(3aR,4S,6aS)-2-[6-(trifluoromethyl)pyridin-2-yl]octahydrocyclopenta[c]pyrrol-4-yl}-1H-indazole] | 4.85
